Results reported in patent publication US4758574A, “2-phenylimidazio (4,5-c) pyridines” (Eli Lilly and Company, priority 1986, dated 1988).
Where a name gives a salt, the structure may show the parent alone.

Columns and labels:
Cat Papillary Muscles = test: Positive Inotropic Activity in Isolated Cat Papillary Muscles; format: cell-based; conditions: Felis catus, control = 100 percent, read-out: Contractility of Papillary Muscle (peak response); for activity at 100 µM: Drug Concentration 10^-4 M; for activity at 10 µM: Drug Concentration 10^-5 M
Description: Positive Inotropic Activity in Isolated Cat Papillary Muscles […] A platinum hook secured one end of the muscle to an electrode mounted in the bottom of the bath, and a silk thread attached the tendon to a Statham isometric transducer. The baths contained Krebs-Henseleit solution (36° C., bubbled with 95 percent oxygen--5 percent carbon dioxide) of the following millimolar composition: NaCl, 118; KCl, 4.5; CaCl2, 2.5; KH2 PO4, 1.1; MgSO4, 1.2; NaHCO3, 25; and glucose, 11. A base-line tension of 1.5 g. was applied to each muscle. Square-wave pulses (5.0 msec. in duration, three times threshold voltage) delivered through the hook electrode and a second electrode positioned near the top of the muscle evoked 12 contractions/minute, which were recorded on a Grass polygraph. After the muscles had equilibrated for 60 minutes, the recorder gain was adjusted so that the pen deflected 10 mm. The drug was introduced in a solution of normal saline in an amount to bring the final concentration of the drug to 10^-5 or 10^-4 molar. Increases in contractility were tabulated as millimeters of pen deflection in excess of the baseline value. In each experiment the maximum contractility was measured. Test results are summarized in Table I and are expressed as percent of control (control=100 percent). Values are the average of results from 2 to 8 muscles.

[1] = tested on: Ventricular Contractility in the Anesthetized Dog; test: Ventricular Contractility in the Anesthetized Dog; format: in vivo, Mongrel dogs; conditions: Canis lupus familiaris, iv, i.v. bolus, read-out: ED50 (dose required to produce a peak increase in contractility of 50%)
Description: Experiments in Anesthetized Dogs Mongrel dogs of either sex ranging in weight from 7 to 14 kg. wer used. Anesthesia was induced with sodium pentobarbital (30 mg./kg., i.v.) and maintained with supplemental doses as required. A positive-pressure pump was used to ventilate the dogs through an endotracheal tube (18 strokes/minute, 20 ml./kg. stroke^-1), and a heating pad kept the body temperature at 37°-38° C. Femoral arterial blood pressure was measured through a polyethylene catheter filled with heparin solution (16 units/ml.) and connected to a Statham pressure transducer. A strain-gauge arch sutured to the right ventricle of the heart measured cardiac contractility. Tension on the gauge was adjusted to 50 g. and the gain of the recorder (Beckman dynograph) was set so that 50 g. caused a 10-mm. pen deflection; cardiac contractile tension was measured as millimeters of pen deflection or grams of tension. The drug was administered following a 30-45 minute equilibrium period as an i.v. bolus (2-5 ml.) in a normal saline vehicle. […] The maximum effects on contractility at various dose levels were determined and plotted and the dose required to produce a 50% increase in contractility (ED50) was determined by interpolation.

SMILES	activity at 100 µM (Cat Papillary Muscles) [%]	activity at 10 µM (Cat Papillary Muscles) [%]	ED50 [1] [mg/kg]
Fc1cccc(-c2nc3cnccc3[nH]2)c1 [Example 1, 2-(3-Fluorophenyl)imidazo[4,5-c]pyridine hydrochloride]	157	112	
Cc1cccc(-c2nc3cnccc3[nH]2)c1 [Example 2, 2-(3-Methylphenyl)imidazo[4,5-c]pyridine]	181	116	1
Clc1cc(Cl)cc(-c2nc3cnccc3[nH]2)c1 [Example 3, 2-(3,5-Dichlorophenyl)imidazo[4,5-c]pyridine hydrochloride]	146	117	
CS(=O)(=O)c1ccc(-c2nc3cnccc3[nH]2)cc1 [Example 4, 2-(4-Methylsulfonylphenyl)imidazo[4,5-c]pyridine hydrochloride]	139	117	7.5
Fc1ccc(-c2nc3cnccc3[nH]2)cc1 [Example 5, 2-(4-Fluorophenyl)imidazo[4,5-c]pyridine hydrochloride]	163	105	
Fc1ccccc1-c1nc2cnccc2[nH]1 [Example 6, 2-(2-Fluorophenyl)imidazo[4,5-c]pyridine hydrochloride]	152	108	
COc1cc(-c2nc3cnccc3[nH]2)cc(OC)c1OC [Example 10, 2-(3,4,5-trimethoxyphenyl)imidazo[4,5-c]pyridine hydrochloride]	150	109	
COc1cccc(-c2nc3cnccc3[nH]2)c1OC [Example 11, 2-(2,3-dimethoxyphenyl)imidazo[4,5-c]pyridine hydrochloride]	90	102	
O=[N+]([O-])c1cccc(-c2nc3cnccc3[nH]2)c1 [Example 12, 2-(3-nitrophenyl)imidazo[4,5-c]pyridine hydrochloride]	105	102	
N#Cc1ccc(-c2nc3cnccc3[nH]2)cc1 [Example 14, 2-(4-cyanophenyl)imidazo[4,5-c]pyridine hydrochloride]	164	112	
COc1cccc(-c2nc3cnccc3[nH]2)c1 [Example 16, 2-(3-methoxyphenyl)imidazo[4,5-c]pyridine hydrochloride]	213	114	
CN(C)c1ccc(-c2nc3cnccc3[nH]2)cc1 [Example 17, 2-(4-dimethylaminophenyl)imidazo[4,5-c]pyridine hydrochloride]	175	95	
COc1ccccc1-c1nc2cnccc2[nH]1 [Example 18, 2-(2-methoxyphenyl)imidazo[4,5-c]pyridine hydrochloride]	163	115	
CCCCOc1ccc(-c2nc3cnccc3[nH]2)cc1 [Example 19, 2-(4-n-butoxyphenyl)imidazo[4,5-c]pyridine hydrochloride]	288	114	
COc1cc(Cl)ccc1-c1nc2cnccc2[nH]1 [Example 20, 2-(4-chloro-2-methoxyphenyl)imidazo[4,5-c]pyridine hydrochloride]	146	147	
COc1c(C)cc(-c2nc3cnccc3[nH]2)cc1C [Example 21, 2-(3,5-dimethyl-4-methoxyphenyl)imidazo[4,5-c]pyridine hydrochloride]	215	127	
COc1ccc(-c2nc3cnccc3[nH]2)c(OC)c1OC [Example 22, 2-(2,3,4-trimethoxyphenyl)imidazo[4,5-c]pyridine hydrochloride]	221	117	
Cc1ccc(-c2nc3cnccc3[nH]2)cc1 [Example 25, 2-(4-methylphenyl)imidazo[4,5-c]pyridine hydrochloride]	130	95	
CCOc1cc(OC)ccc1-c1nc2cnccc2[nH]1 [Example 28, 2-(2-ethoxy-4-methoxyphenyl)imidazo[4,5-c]pyridine]	130	108	

SMILES	activity at 100 µM (Cat Papillary Muscles) [%]	activity at 10 µM (Cat Papillary Muscles) [%]	ED50 [1] [mg/kg]
CCCCOc1cc(OC)ccc1-c1nc2cnccc2[nH]1 [Example 30, 2-(2-n-butoxy-4-methoxyphenyl)imidazo[4,5-c]pyridine]	140	100	
COc1ccc(OC)c(-c2nc3cnccc3[nH]2)c1 [Example 31, 2-(2,5-dimethoxyphenyl)imidazo[4,5-c]pyridine hydrochloride]	194	110	
COc1cc(OC)cc(-c2nc3cnccc3[nH]2)c1 [Example 32, 2-(3,5-dimethoxyphenyl)imidazo[4,5-c]pyridine]	179	115	
COc1cccc(OC)c1-c1nc2cnccc2[nH]1 [Example 33, 2-(2,6-dimethoxyphenyl)imidazo[4,5-c]pyridine hydrochloride]	184	88	
COc1cc(OC)c(-c2nc3cnccc3[nH]2)c(OC)c1 [Example 34, 2-(2,4,6-trimethoxyphenyl)imidazo[4,5-c]pyridine]	137	103	
CCCCCOc1cc(OC)ccc1-c1nc2cnccc2[nH]1 [Example 35, 2-(2-n-pentoxy-4-methoxyphenyl)imidazo[4,5-c]pyridine hydrochloride]	81	105	
COCCCOc1cc(OC)ccc1-c1nc2cnccc2[nH]1 [Example 36, 2-[2-(γ-methoxypropoxy)-4-methoxyphenyl]imidazo[4,5-c]pyridine]	147	100	
COCCOc1cc(OC)ccc1-c1nc2cnccc2[nH]1 [Example 37, 2-[2-(β-methoxyethoxy)-4-methoxyphenyl]imidazo[4,5-c]pyridine]	116	109	
COc1ccc(-c2nc3cnccc3[nH]2)c(OCCSc2ccccc2)c1 [Example 38, 2-[2-(β-phenylmercaptoethoxy)-4-methoxyphenyl]imidazo[4,5-c]pyridine]	109	103	
COc1cc(OC)c(-c2nc3cnccc3[nH]2)cc1OC [Example 40, 2-(2,4,5-trimethoxyphenyl)imidazo[4,5-c]pyridine hydrochloride]	129	108	
CCSc1ccc(-c2nc3cnccc3[nH]2)c(OC)c1 [Example 41, 2-(2-methoxy-4-ethylmercaptophenyl)imidazo[4,5-c]pyridine hydrochloride]	196	136	
CCOc1cc(SC)ccc1-c1nc2cnccc2[nH]1 [Example 42, 2-(2-ethoxy-4-methylmercaptophenyl)imidazo[4,5-c]pyridine]	149	122	
CCCOc1cc(SC)ccc1-c1nc2cnccc2[nH]1 [Example 43, 2-(2-n-propoxy-4-methylmercaptophenyl)imidazo[4,5-c]pyridine]			2.2
COc1ccc(-c2nc3cnccc3[nH]2)c(OCCCSC)c1 [Example 44, 2-[2-(γ-methylmercaptopropoxy)-4-methoxyphenyl]imidazo[4,5-c]pyridine]	129	118	
Cc1ccc(-c2nc3cnccc3[nH]2)cc1C [Example 46, 2-(3,4-dimethylphenyl)imidazo[4,5-c]pyridine hydrochloride]	225	133	
Clc1cccc(-c2nc3cnccc3[nH]2)c1 [Example 48, 2-(3-chlorophenyl)imidazo[4,5-c]pyridine]	176	107	
Clc1ccc(-c2nc3cnccc3[nH]2)cc1 [Example 49, 2-(4-chlorophenyl)imidazo[4,5-c]pyridine]	175	107	
COc1ccc(-c2nc3cnccc3[nH]2)c(OCC[S+]([O-])c2ccccc2)c1 (stereo not drawn) [Example 53, 2-[2-(β-phenylsulfinylethoxy)-4-methoxyphenyl]imidazo[4,5-c]pyridine]	96	107	
COc1cc(Br)ccc1-c1nc2cnccc2[nH]1 [Example 57, 2-(2-methoxy-4-bromophenyl)imidazo[4,5-c]pyridine hydrochloride]	175	134	
